# Laboratory results taken from patent US11802128B2, “Azetidine and pyrrolidine PARP1 inhibitors and uses thereof” (Xinthera, Inc., priority 2021, dated 2023).
# Columns and labels:
# [1] = molecular target: PARP1 (Homo sapiens (Human), UniProt P09874); experiment: Biochemical fluorescent polarization (FP) assay, displacement of PARPi-FL; type: binding; settings: 20 nM protein, 3 nM PARPi-FL, 4 h at room temperature
# Protocol: (§1) The assay was performed utilizing the following method:
# (§2) 100% DMSO was used for the high (with protein) and low (without protein) control samples. 20 nL of compound or DMSO alone was added to individual assay plate wells.
# (§3) PARP1 and PARP2 protein were expressed, purified, and diluted in assay buffer containing 50 mM Tris pH 8.0, 0.001% Triton X-100, 10 mM MgCl2, 150 mM NaCl to a final concentration of 20 nM. The PARPi-FL was then added at a final concentration of 3 nM.
# (§4) The assay plate is centrifuged at 1000 rpm for 1 min and incubated for 4 h at room temperature.
# (§5) The fluorescent polarization is read using an Envision plate reader using the following settings: […]
# [2] = molecular target: PARP2 (Homo sapiens (Human), UniProt Q9UGN5); experiment: as above; type: binding; settings: 20 nM protein, 3 nM PARPi-FL, 4 h at room temperature; read-out: IC50 FP PARP2
# Sequence of PARP2 (Q9UGN5 whole entry): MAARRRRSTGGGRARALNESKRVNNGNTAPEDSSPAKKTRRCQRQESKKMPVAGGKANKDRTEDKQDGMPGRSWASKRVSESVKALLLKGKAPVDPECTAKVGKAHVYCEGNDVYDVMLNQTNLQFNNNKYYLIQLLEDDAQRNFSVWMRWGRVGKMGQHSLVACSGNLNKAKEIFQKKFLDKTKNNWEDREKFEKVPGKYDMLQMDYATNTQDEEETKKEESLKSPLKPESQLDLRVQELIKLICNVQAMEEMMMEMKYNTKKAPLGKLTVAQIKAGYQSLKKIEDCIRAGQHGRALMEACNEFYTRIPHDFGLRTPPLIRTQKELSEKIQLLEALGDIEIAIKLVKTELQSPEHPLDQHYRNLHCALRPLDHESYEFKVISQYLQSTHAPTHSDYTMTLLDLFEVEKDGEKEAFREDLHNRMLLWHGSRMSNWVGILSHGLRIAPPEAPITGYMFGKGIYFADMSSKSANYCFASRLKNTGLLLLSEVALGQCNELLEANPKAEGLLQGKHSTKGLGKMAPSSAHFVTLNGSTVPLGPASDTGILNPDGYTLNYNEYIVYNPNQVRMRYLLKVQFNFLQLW
# Protocol: as §1, §2, §3, §4, §5
# [3] = test system: MDA-MB-436 (mutated BRCA1) cells; experiment: Cell growth inhibition assay (CellTiter-Glo cell viability, 7 days); type: cell-based; settings: Homo sapiens, 168 h, MDA-MB-436, 7 days
# How it was run: (§6)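 Cells were seeded at 50 (DLD-1 parental), 200 (DLD-1 BRCA2−/−) or 500 (MDA-MB-436) cells/well onto 1:3 compound dilutions, top final 10 or 30 μM. Culture ran 7 days at 37 °C, 5% CO2. ATP was read by CellTiter-Glo 2.0, and IC50 was fitted from growth inhibition.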
# [4] = test system: DLD-1 parental cells; experiment: as above; type: cell-based; settings: Homo sapiens, 168 h
# How it was run: as §6
# [5] = test system: DLD-1 BRCA2(−/−) cells; experiment: as above; type: cell-based; settings: Homo sapiens, 168 h
# How it was run: as §6
# Sequence of PARP1 (P09874 whole entry): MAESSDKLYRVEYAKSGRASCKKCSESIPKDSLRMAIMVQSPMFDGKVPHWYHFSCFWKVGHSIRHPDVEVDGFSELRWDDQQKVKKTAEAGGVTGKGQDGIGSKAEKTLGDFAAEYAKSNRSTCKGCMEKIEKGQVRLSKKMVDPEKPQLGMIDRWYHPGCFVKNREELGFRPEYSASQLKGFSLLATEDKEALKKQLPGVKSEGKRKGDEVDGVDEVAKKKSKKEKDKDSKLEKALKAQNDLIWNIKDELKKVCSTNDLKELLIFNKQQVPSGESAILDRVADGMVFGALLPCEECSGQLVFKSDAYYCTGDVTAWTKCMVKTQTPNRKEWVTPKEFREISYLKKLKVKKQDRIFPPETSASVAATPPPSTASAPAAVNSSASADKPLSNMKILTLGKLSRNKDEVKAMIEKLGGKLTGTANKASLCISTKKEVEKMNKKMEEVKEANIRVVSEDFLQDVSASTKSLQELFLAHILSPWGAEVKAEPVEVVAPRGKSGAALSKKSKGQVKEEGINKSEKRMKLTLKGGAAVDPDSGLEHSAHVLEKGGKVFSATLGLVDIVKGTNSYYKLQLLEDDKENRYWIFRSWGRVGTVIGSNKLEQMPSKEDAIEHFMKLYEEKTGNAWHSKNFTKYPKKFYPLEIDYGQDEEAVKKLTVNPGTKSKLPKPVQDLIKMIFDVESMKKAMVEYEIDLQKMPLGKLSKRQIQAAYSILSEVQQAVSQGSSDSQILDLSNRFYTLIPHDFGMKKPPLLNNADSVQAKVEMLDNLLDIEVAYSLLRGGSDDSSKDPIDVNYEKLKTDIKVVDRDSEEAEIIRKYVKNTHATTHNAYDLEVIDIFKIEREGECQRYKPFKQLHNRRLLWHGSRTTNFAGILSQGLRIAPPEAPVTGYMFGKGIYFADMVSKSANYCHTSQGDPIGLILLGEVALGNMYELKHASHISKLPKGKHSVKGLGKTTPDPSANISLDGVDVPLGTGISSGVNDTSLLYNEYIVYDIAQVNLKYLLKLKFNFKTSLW
Compound,IC50 [1] [nM],IC50 [2] [nM],EC50 [3] [nM],EC50 [4] [nM],EC50 [5] [nM]
"CCc1cc2ncc(CN3CC[C@@H](Oc4ccc(C(=O)NC)nc4)C3)cc2[nH]c1=O [Example 2, 5-{[(3R)-1-[(7-ethyl-6-oxo-5H-1,5-naphthyridin-3-yl)methyl]pyrrolidin-3-yl]oxy}-N-methylpyridine-2-carboxamide]",4.2,> 10000,1.6,> 30000,3.3
"Cc1cc2ncc([C@H](C)N3C[C@H](Oc4ccc(C#N)nc4)[C@H]3C)cc2[nH]c1=O (single isomer, unassigned) [Example 61]",18,23000,8.8,,10
CCc1cc2ncc(CN3CC(n4ccc5nc(C(=O)NC)ccc54)C3)cc2[nH]c1=O [Example 40],5.5,32000,130,,180
"Cc1cc2ncc(CN3CC[C@@H](Oc4ccc(C(=O)NC5CC5)nc4)C3)cc2[nH]c1=O [Example 7, N-cyclopropyl-5-{[(3R)-1-[(7-methyl-6-oxo-5H-1,5-naphthyridin-3-yl)methyl]pyrrolidin-3-yl]oxy}pyridine-2-carboxamide]",7.4,66000,8.3,,13
CCc1nc2cc(F)c(CN3CC[C@@H](Oc4ccc(C(=O)NC)nc4)C3)cc2[nH]c1=O [Example 32],6.8,> 100000,16,,6.4
"CCc1cc2ncc(CN3CC[C@@H](Oc4ccc(C(=O)NC5CC5)nc4)C3)cc2[nH]c1=O [Example 4, N-cyclopropyl-5-{[(3R)-1-[(7-ethyl-6-oxo-5H-1,5-naphthyridin-3-yl)methyl]pyrrolidin-3-yl]oxy}pyridine-2-carboxamide]",5.8,11000,1.1,,2
Cc1cc2ncc(CN3C[C@H](Oc4ccc(C(=O)N[C@H]5C[C@H](F)C5)nc4)[C@H]3C)cc2[nH]c1=O [Example 82],4.5,6800,2.1,,3.1
CNC(=O)c1ccc(O[C@H]2CN(Cc3cnc4cc(C(F)F)c(=O)[nH]c4c3)[C@@H]2C)cn1 [Example 70],4.1,2400,1.1,,1.3
Cc1cc2ncc(CN3C[C@H](Oc4ccc(F)nc4)[C@H]3C)cc2[nH]c1=O [Example 62],18,52000,140,,86
"CCc1cc2ncc(CN3CC(Oc4ccc(C#N)cc4)C3)cc2[nH]c1=O [Example 22, 4-({1-[(7-ethyl-6-oxo-5H-1,5-naphthyridin-3-yl)methyl]azetidin-3-yl}oxy)benzonitrile]",5.1,16000,27,,37
CCNC(=O)c1ccc(OC2CN(Cc3cnc4cc(C)c(=O)[nH]c4c3)C2)cn1 [Example 56],6.2,76000,12,,45
CCc1cc2ncc(CN3C[C@H](Oc4ccc(C(=O)NC)nc4)C[C@H]3C)cc2[nH]c1=O [Example 31],37,> 100000,31,,13
CCNC(=O)c1ccc(OC2CN(Cc3cnc4cc(CC)c(=O)[nH]c4c3)C2)cn1 [Example 58],6,8300,1.7,,3.3
